Experiment [1] concerns peptide-forming enzyme (Mono S fraction enzyme). Kind of experiment: Enzyme substrate specificity (1)-(10), (13), (14): peptide production. Format: biochemical, Empedobacter brevis. Also noted: key to Formed peptide: +: those peptides for which production was confirmed but which were unable to be quantified due to the absence of a standard; a trace amount. The conditions noted are these: pH 9.0, 25° C., 3 hours; for Produced peptide: L-amino acid ester 100 mM, peptide (amine component) 150 mM. The method, then:
Ester specificity was examined in the case of using L-amino acid ester for the carboxy component. 2 μl of the same enzyme fraction as used in Example 5 was added to 100 μl of 100 mM borate buffer (pH 9.0) containing the carboxy components indicated in Table 4 at 100 mM, 200 mM L-glutamine and 10 mM EDTA, and allowed to react at 25° C. for 2 hours. HCl represents hydrochloride in Table 4.
Peptide production was examined in the case of using L-alanine methyl ester for the carboxy component and using various L-amino acids for the amine component.
Peptide production was examined in the case of using various types of L-amino acid methyl esters for the carboxy component and using L-glutamine for the amine component. 2 μl of the same enzyme fraction as used in Example 5 was added to 100 μl of 100 mM borate buffer (pH 9.0) containing the L-amino acid methyl ester hydrochloride salts (AA-OMe.HCl) shown in Table 6 at 100 mM, 150 mM L-glutamine and 10 mM EDTA, and allowed to react at 25° C. for 3 hours. […] Furthermore, Tween-80 was added to the reaction system to a final concentration of 0.1% in the case of using L-Trp-OMe and L-Tyr-OMe.
Peptide production was examined in the case of using various L-amino acid methyl esters for the carboxy component and various L-amino acids for the amine component. 2 μl of the same enzyme fraction as used in Example 5 was added to 100 μl of 100 mM borate buffer (pH 9.0) containing the L-amino acid methyl ester hydrochloride salts (AA-OMe.HCl) shown in Table 7 at 100 mM, the L-amino acids shown in Table 7 at 150 mM and 10 mM EDTA, and allowed to react at 25° C. for 3 hours. The “tr” indicates a trace amount. Furthermore, Tween-80 was added to the reaction system to a final concentration of 0.1% in the case of using L-Trp-OMe.
Peptide production was examined in the case of using the L or D forms of various amino acid methyl esters for the carboxy component, and the L or D forms of various amino acids for the amine component. 2 μl of the same enzyme fraction as used in Example 5 was added to 100 μl of 100 mM borate buffer (pH 9.0) containing the various amino acid methyl ester hydrochloride salts (AA-OMe HCl) shown in Table 8 at 100 mM, the various amino acids shown in Table 8 at 150 mM and 10 mM EDTA, and allowed to react at 25° C. for 3 hours. The “tr” indicates a trace amount.
Peptide production was examined using various L-amino acid amides for the carboxy component, and various L-amino acids for the amine component. 2 μl of the same enzyme fraction as that used in Example 5 was added to 100 μl of 100 mM borate buffer (pH 9.0) containing the L-amino acid amide hydrochloride salt (M-NH2.HCl) shown in Table 9 at 100 mM, the L-amino acids shown in Table 9 at 150 mM and 10 mM EDTA, and allowed to react at 25° C. for 3 hours.
Peptide production was examined in the case of using various L-alanine methyl esters for the carboxy component and C-protected L-amino acids for the amine component. 2 μl of the same enzyme fraction as used in Example 5 was added to 100 μl of 100 mM borate buffer (pH 9.0) containing the L-alanine methyl ester hydrochloride hydrochloride salt (Ala-OMe.HCl) shown in Table 10 at 100 mM, the L-amino acid amide hydrochloride salts shown in Table 10 at 150 mM and 10 mM EDTA, and allowed to react at 25° C. for 3 hours.
Peptide production was examined in the case of using various amino acid methyl esters for the carboxy component and methylamine for the amine component. 2 μl of the same enzyme fraction as used in Example 5 was added to 100 μl of 100 mM borate buffer (pH 9.0) containing the amino acid methyl ester hydrochloride salt (M-OMe.HCl) shown in Table 11 at 100 mM, the methylamine shown in Table 11 at 150 mM and 10 mM EDTA, and allowed to react at 25° C. for 3 hours.
Peptide production was examined in the case of using […] for the carboxy component or β-amino acid for the amine component.

Experiment [2] deals with enzyme derived from Sphingobacterium sp. strain FERM BP-8124 (SP-Sepharose HP fraction enzyme). Description: Enzyme substrate specificity (11), (12): peptide production. Format: biochemical. More on the design: key to Produced peptide (Table 15-1) / Produced peptide (Table 15-3) / Produced peptide (Table 15-4): +: those peptides for which production was confirmed but which were unable to be quantified due to the absence of a standard; a trace amount. Conditions: carboxy component 100 mM, 0.33 units enzyme, pH 9.0, 25° C., 1.5 hours; for Produced peptide (Table 15-2): L-Gln 150 mM; for Produced peptide (Table 15-4): amides and methylamine; for Produced peptide (Table 15-4) / Produced peptide (Table 15-3) / Produced peptide (Table 15-1) / Produced peptide (Table 16, oligopeptide): amine component 150 mM. An excerpt:
Substrate specificity was examined for enzyme derived from Sphingobacterium sp. strain FERM BP-8124 (Depositary institution: the independent administrative corporation, National Institute of Advanced Industrial Science and Technology, International Patent Organism Depositary, Address of depositary institution: Chuo Dai-6, 1-1 Higashi 1-Chome, Tsukuba-shi, Ibaraki-ken, Japan, International deposit date: […] The amounts of various peptides formed in this reaction are shown in Table 15. The “+” mark indicates those peptides for which production was confirmed but which were unable to be quantified due to the absence of a standard, while “tr” indicates a trace amount. Furthermore, Tween-80 was added to the reaction system to a final concentration of 0.1% in the case of using L-Tyr-OMe. In addition, hydrochloride salts were used for all carboxy components. Substrate specificity with respect to oligopeptide production was examined for enzyme derived from Sphingobacterium sp. strain FERM BP-8124 (Depositary institution: the independent administrative corporation, National Institute of Advanced Industrial Science and Technology, International Patent Organism Depositary, Address of depositary institution: Chuo Dai-6, 1-1 Higashi 1-Chome, Tsukuba-shi, Ibaraki-ken, Japan, International deposit date: […] The amounts of each oligopeptide formed in this reaction are shown in Table 16. Furthermore, hydrochloride salts were used for all the carboxy components.

Where [3] appears, read: L-amino acid methyl ester hydrochloride 100 mM, 150 mM L-glutamine.
[4] abbreviates: L-alanine methyl ester hydrochloride 100 mM, L-amino acid amide hydrochloride 150 mM.
[5] abbreviates: L-amino acid methyl ester hydrochloride 100 mM, L-amino acid 150 mM.
[6] abbreviates: 100 mM L-alanine methyl ester hydrochloride, L-amino acid 150 mM.

The text below walks through data of US20040204577A1, “Novel peptide-forming enzyme gene” (Ajinomoto Co., Inc., priority 2003, published 2004).

Where a SMILES comes first, the peptide text is derived from it. [ ]: non-standard residue; d: D form.

Regarding `NC(=O)CC[C@H](NC(=O)[C@@H](N)CCC(N)=O)C(=O)O` [L-Gln-L-Gln] (H-Gln-Gln-OH), the Formed peptide in experiment [1] (setting [3]) is reported as 0.3 mM. Besides, the “Produced peptide (Table 15-2)” value in experiment [2] came out at 0.1 mM.
Taken in the same sequence, the figures for `NC(=O)CC[C@H](NC(=O)[C@@H](N)CO)C(=O)O` [L-Ser-L-Gln] (H-Ser-Gln-OH) were 24.0 mM and 12.9 mM.
Compound `C[C@H](N)C(=O)NCC(N)=O` [L-Ala-Gly-NH2] (H-Ala-Gly-NH2) returned a Formed peptide in experiment [1] (setting [4]) of 7.4 mM. Moreover, the “Produced peptide (Table 15-4)” value in experiment [2] is reported as 15.1 mM.
Regarding `NC(N)=NCCC[C@H](N)C(=O)N[C@@H](CO)C(=O)O` [L-Arg-L-Ser] (H-Arg-Ser-OH), the Formed peptide in experiment [1] (setting [5]) was 3.6 mM. For the same compound, in experiment [2], the “Produced peptide (Table 15-3)” value is given as 2.2 mM.
For `C[C@H](N)C(=O)N[C@@H](CS)C(=O)O` [L-Ala-L-CySH] (H-Ala-Cys-OH), the Formed peptide result in experiment [1] (setting [6]) was “+”. Moreover, the “Produced peptide (Table 15-1)” value in experiment [2] was “+”.
In turn, `C[C@H](N)C(=O)NCC(=O)O` [L-Ala-Gly] (H-Ala-Gly-OH) registered a Formed peptide in experiment [1] (setting [6]) of 13.7 mM. The “Produced peptide (Table 15-1)” value in experiment [2] stood at 11.1 mM.
In experiment [1], L-Ala-L-Phe-L-Ala registered a Produced peptide of 49.7 mM. Moreover, in experiment [2], the “Produced peptide (Table 16, oligopeptide)” value worked out at 24.8 mM.
`CC[C@H](C)[C@H](NC(=O)[C@H](C)N)C(=O)O` [L-Ala-L-Ile] (H-Ala-Ile-OH) gave a Formed peptide in experiment [1] (setting [6]) of 33.9 mM. Also, in experiment [2], the “Produced peptide (Table 15-1)” value amounted to 24.7 mM.
Regarding L-Ala-Gly-Gly, in experiment [1], the Produced peptide is reported as 41.7 mM. In experiment [2], the “Produced peptide (Table 16, oligopeptide)” value was 33.7 mM.
Consider `C[C@H](N)C(=O)N[C@@H](CCCCN)C(=O)O` [L-Ala-L-Lys] (H-Ala-Lys-OH), for which the Formed peptide in experiment [1] (setting [6]) is on record as 71.8 mM. Also, the “Produced peptide (Table 15-1)” value in experiment [2] was found to be 71.2 mM.
Turning to `CC(C)[C@H](N)C(=O)N[C@@H](CCC(N)=O)C(=O)O` [L-Val-L-Gln] (H-Val-Gln-OH), in experiment [1] (setting [3]), the Formed peptide came out at 15.4 mM. Also, the “Produced peptide (Table 15-2)” value in experiment [2] was 8.2 mM.
On the same counts, the results for `CSCC[C@H](N)C(=O)N[C@@H](CCC(N)=O)C(=O)O` [L-Met-L-Gln] (H-Met-Gln-OH) are 12.0 mM and 32.6 mM.
For `NCC(=O)N[C@@H](CO)C(=O)O` [Gly-L-Ser] (H-Gly-Ser-OH), in experiment [1] (setting [5]), the Formed peptide amounted to 44.2 mM. The “Produced peptide (Table 15-3)” value in experiment [2] is on record as 53.8 mM.
Compound `C[C@@H](N)C(=O)N[C@@H](CO)C(=O)O` [D-Ala-L-Ser] (H-[dA]-Ser-OH) gave a Formed peptide in experiment [1] (L or D amino acid methyl ester hydrochloride 100 mM, L or D amino acid 150 mM) of 20.3 mM. Besides, the “Produced peptide (Table 15-1)” value in experiment [2] worked out at 24.1 mM.
In experiment [1] (amino acid methyl ester hydrochloride 100 mM, methylamine 150 mM), `CNC(=O)[C@@H](N)[C@@H](C)O` [L-Thr-methylamine] had a Formed peptide of 0.2 mM. For the same compound, the “Produced peptide (Table 15-4)” value in experiment [2] was 0.3 mM.
As for `CC[C@H](C)[C@H](N)C(=O)N[C@@H](Cc1ccccc1)C(=O)O` [L-Ile-L-Phe] (H-Ile-Phe-OH), the Formed peptide in experiment [1] (setting [5]) came out at 5.2 mM. Also, the “Produced peptide (Table 15-3)” value in experiment [2] amounted to 1.5 mM.
As for Gly-L-Ala-L-Tyr, the Produced peptide in experiment [1] was 1.7 mM. In experiment [2], the “Produced peptide (Table 16, oligopeptide)” value came to 0.6 mM.
On the same counts, the results for L-Ala-Gly-L-Ala are 25.9 mM and 35.1 mM.
On to `NC(=O)CC[C@H](NC(=O)[C@@H](N)Cc1ccccc1)C(=O)O` [L-Phe-L-Gln], for which the Formed peptide was 0.2 mM in experiment [1] (L-amino acid amide hydrochloride as carboxy component 100 mM, L-amino acid 150 mM) and 0.9 mM in experiment [1] (setting [3]). Moreover, in experiment [2], the “Produced peptide (Table 15-2)” value worked out at 0.8 mM.
Turning to `C[C@H](N)C(=O)N[C@@H](C)C(=O)O` [L-Ala-L-Ala] (H-Ala-Ala-OH), the Formed peptide in experiment [1] (setting [6]) stood at 25.4 mM. The same compound came in with a Produced peptide in experiment [1] of 28.7 mM. Further, in experiment [2], the “Produced peptide (Table 15-1)” value was found to be 13.1 mM and the “Produced peptide (Table 16, oligopeptide)” value is 25.6 mM.
As for `C[C@H](N)C(=O)N1CCC[C@H]1C(=O)O` [L-Ala-L-Pro] (H-Ala-Pro-OH), the Formed peptide entry in experiment [1] (setting [6]) was “tr”. For the same compound, the “Produced peptide (Table 15-1)” value in experiment [2] was determined as 1.5 mM.
Turning to L-Ala-L-His-L-Ala, the Produced peptide in experiment [1] was 55.9 mM. Besides, in experiment [2], the “Produced peptide (Table 16, oligopeptide)” value came to 58.0 mM.
Take `CC(C)[C@H](NC(=O)[C@H](C)N)C(=O)O` [L-Ala-L-Val] (H-Ala-Val-OH): the Formed peptide in experiment [1] (setting [6]) was 20.8 mM. The “Produced peptide (Table 15-1)” value in experiment [2] is given as 10.9 mM.
`NC(=O)CC[C@H](NC(=O)[C@@H](N)CCCN=C(N)N)C(=O)O` [L-Arg-L-Gln] (H-Arg-Gln-OH): the Formed peptide in experiment [1] (setting [3]) was 7.1 mM. In experiment [2], the “Produced peptide (Table 15-2)” value is recorded as 17.2 mM.
The compound `C[C@H](N)C(=O)N[C@@H](C)C(N)=O` [L-Ala-L-Ala-NH2] (H-Ala-Ala-NH2) gave a Formed peptide in experiment [1] (setting [4]) of 8.3 mM. Also, the “Produced peptide (Table 15-4)” value in experiment [2] is 9.2 mM.
In experiment [1], L-Ala-L-Ala-L-Ala registered a Produced peptide of 57.5 mM. Also, in experiment [2], the “Produced peptide (Table 16, oligopeptide)” value came out at 41.1 mM.
Compound `C[C@H](NC(=O)[C@@H](N)[C@@H](C)O)C(=O)O` [L-Thr-L-Ala] (H-Thr-Ala-OH) showed a Formed peptide in experiment [1] (setting [5]) of 9.4 mM. For the same compound, the “Produced peptide (Table 15-3)” value in experiment [2] was 5.8 mM.
In turn, `C[C@H](N)C(=O)N[C@@H](Cc1ccc(O)cc1)C(=O)O` [L-Ala-L-Tyr] (H-Ala-Tyr-OH) came in with a Formed peptide in experiment [1] (setting [6]) of 17.6 mM. Also, the “Produced peptide (Table 15-1)” value in experiment [2] amounted to 11.1 mM.
